IC50 data for two molecules are collected here from patent US10092584B2 (Achillion Pharmaceuticals, Inc., priority 2015, dated 2018).

The target of this assay is T1, Human Factor D (Homo sapiens, UniProt P00746).
T1 construct: purified from human serum; purchased Complement Technology, Inc; host or cells: human serum
Kind of assay: Human Factor D assay (Example 8). The conditions noted are these: Table 3; Human Factor D 80 nM, substrate Z-L-Lys-SBzl; read-out: IC50 (Stars). The class given is biochemical. The essentials: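 Thioester cleavage assay: human Factor D (serum-derived, 80 nM final), substrate Z-L-Lys-SBzl with DTNB, both 100 μM final, after 5 min compound preincubation at room temperature.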

T1 sequence (P00746 26-253): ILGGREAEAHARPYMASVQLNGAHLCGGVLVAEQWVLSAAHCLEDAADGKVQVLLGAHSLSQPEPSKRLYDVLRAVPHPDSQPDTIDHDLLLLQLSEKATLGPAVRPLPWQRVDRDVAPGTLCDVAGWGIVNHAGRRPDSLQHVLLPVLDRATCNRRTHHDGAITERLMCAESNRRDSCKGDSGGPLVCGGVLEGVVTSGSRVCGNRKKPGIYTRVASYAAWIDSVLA

In general, IC50 refers to the concentration needed to halve the response being measured. `CC(=O)c1nn(CC(=O)N2C[C@H](F)C[C@H]2C(=O)Nc2cccc(-c3ccc4[nH]cnc4c3Cl)c2F)c2ccccc12` [Compound 461, (2S,4R)-1-(2-(3-acetyl-1H-indazol-1-yl)acetyl)-N-(3-(4-chloro-1H-benzo[d]imidazol-5-yl)-2-fluorophenyl)-4-fluoropyrrolidin-2-carboxamide]: the IC50 was under 1 µM.

Take `CC(=O)c1nn(CC(=O)N2[C@@H]3C[C@@H]3C[C@H]2C(=O)Nc2cccc(-c3ccc4[nH]cnc4c3Cl)c2F)c2ccccc12` [Compound 463, (1R,3S,5R)-2-(2-(3-acetyl-1H-indazol-1-yl)acetyl)-N-(3-(4-chloro-1H-benzo[d]imidazol-5-yl)-2-fluorophenyl)-2-azabicyclo[3.1.0] hexane-3-carboxamide]: the IC50 was under 1 µM.
